Assay results as given in patent US20080200454A1, “CARBON-LINKED TETRAHYDRO-PYRAZOLO-PYRIDINE MODULATORS OF CATHEPSIN S” (priority 2007, published 2008).

molecular target: Recombinant human cathepsin S (CatS) (Homo sapiens, UniProt P25774); experiment: Recombinant human cathepsin S (CatS) inhibition assay, fluorogenic substrate Z-Valine-Valine-Arginine-AMC; conditions: not given;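 also: Baculovirus-expressed CatS in pH 5.0 sodium acetate buffer with DTT and NaCl, fluorescence read each minute over 20 min, inhibition derived from rate slope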
Sequence (P25774 115-331): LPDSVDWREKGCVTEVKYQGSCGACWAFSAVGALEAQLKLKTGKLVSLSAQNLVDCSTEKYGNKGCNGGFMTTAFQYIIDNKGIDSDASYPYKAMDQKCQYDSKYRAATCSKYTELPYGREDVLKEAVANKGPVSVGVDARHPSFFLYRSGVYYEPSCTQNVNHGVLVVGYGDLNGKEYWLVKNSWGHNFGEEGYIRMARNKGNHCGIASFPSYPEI

Structure (SMILES)	IC50
CS(=O)(=O)N1CCc2c(c(-c3ccc(Cl)c(C#CCN)c3)nn2CCCN2CCOCC2)C1 [Example 303, 3-{2-Chloro-5-[5-(methylsulfonyl)-1-(3-morpholin-4-ylpropyl)-4,5,6,7-tetrahydro-1H-pyrazolo[4,3-c]pyridin-3-yl]phenyl}prop-2-yn-1-amine]	> 20000 nM
CS(=O)(=O)N1CCc2c(c(-c3ccc(Cl)c(C#Cc4ccc(Cl)cc4)c3)nn2CC(O)CN2CCC(N)CC2)C1 (centres unmarked) [Example 133, 1-(4-Amino-piperidin-1-yl)-3-{3-[4-chloro-3-(4-chloro-phenylethynyl)-phenyl]-5-methanesulfonyl-4,5,6,7-tetrahydro-pyrazolo[4,3-c]pyridin-1-yl}-propan-2-ol]	290 nM
CC(C)(C)OC(=O)N1CCN(CC(O)Cn2nc(-c3ccc(Cl)c(C#Cc4ccc(Cl)cc4)c3)c3c2CCN(S(C)(=O)=O)C3)CC1 (centres unmarked) [Example 131, 4-(3-{3-[4-Chloro-3-(4-chloro-phenylethynyl)-phenyl]-5-methanesulfonyl-4,5,6,7-tetrahydro-pyrazolo[4,3-c]pyridin-1-yl}-2-hydroxy-propyl)-piperazine-1-carboxylic acid tert-butyl ester]	160 nM
NCC(=O)N1CCc2c(c(-c3ccc(Cl)c(C#Cc4ccc(CNCc5ccc(Cl)cc5)cc4)c3)nn2CCCN2CCOCC2)C1 [Example 154, 2-[3-(4-Chloro-3-{[4-({[(4-chlorophenyl)methyl]amino}methyl)phenyl]ethynyl}phenyl)-1-(3-morpholin-4-ylpropyl)-1,4,6,7-tetrahydro-5H-pyrazolo[4,3-c]pyridin-5-yl]-2-oxoethanamine]	260 nM
CS(=O)(=O)N1CCc2c(c(-c3ccc(Cl)c(C#Cc4ccc(O)cc4)c3)nn2CCCN2CCOCC2)C1 [Example 7, 4-{2-Chloro-5-[5-methanesulfonyl-1-(3-morpholin-4-yl-propyl)-4,5,6,7-tetrahydro-1H-pyrazolo[4,3-c]pyridin-3-yl]-phenylethynyl}-phenol]	250 nM
CS(=O)(=O)N1CCc2c(c(-c3ccc(C(F)(F)F)c(C#Cc4ccc(Cl)cc4)c3)nn2CC(O)CN2CCC(N3CCCC3=O)CC2)C1 (centres unmarked) [Example 116, 1-[1-(3-{3-[3-(4-Chloro-phenylethynyl)-4-trifluoromethyl-phenyl]-5-methanesulfonyl-4,5,6,7-tetrahydro-pyrazolo[4,3-c]pyridin-1-yl}-2-hydroxy-propyl)-piperidin-4-yl]-pyrrolidin-2-one]	40 nM
CS(=O)(=O)N1CCc2c(c(-c3ccc(Cl)c(CCc4ccccc4)c3)nn2CCCN2CCOCC2)C1 [Example 62, 3-(4-Chloro-3-phenethyl-phenyl)-5-methanesulfonyl-1-(3-morpholin-4-yl-propyl)-4,5,6,7-tetrahydro-1H-pyrazolo[4,3-c]pyridine]	1230 nM
CS(=O)(=O)N1CCc2c(c(-c3ccc(Cl)c(CCCNS(=O)(=O)c4ccccc4)c3)nn2CCCN2CCC(N3CCCC3=O)CC2)C1 [Example 91, N-{3-[2-Chloro-5-(5-methanesulfonyl-1-{3-[4-(2-oxo-pyrrolidin-1-yl)-piperidin-1-yl]-propyl}-4,5,6,7-tetrahydro-1H-pyrazolo[4,3-c]pyridin-3-yl)-phenyl]-propyl}-benzenesulfonamide]	940 nM
CNCCCNC(=O)c1ccc(C#Cc2cc(-c3nn(CCCN4CCOC[C@@H]4C)c4c3CN(C(=O)C(N)=O)CC4)ccc2Cl)cc1 [Example 613, 4-{[5-(5-[Amino(oxo)acetyl]-1-{3-[(3S)-3-methylmorpholin-4-yl]propyl}-4,5,6,7-tetrahydro-1H-pyrazolo[4,3-c]pyridin-3-yl)-2-chlorophenyl]ethynyl}-N-[3-(methylamino)propyl]benzamide]	40 nM
CS(=O)(=O)N1CCc2c(c(-c3ccc(Cl)c(C#Cc4ccc(CNCc5ccc(Cl)cc5)cc4)c3)nn2CCCN2CCN(c3ccccc3)CC2)C1 [Example 180, 1-{4-[(2-Chloro-5-{5-(methylsulfonyl)-1-[3-(4-phenylpiperazin-1-yl)propyl]-4,5,6,7-tetrahydro-1H-pyrazolo[4,3-c]pyridin-3-yl}phenyl)ethynyl]phenyl}-N-[(4-chlorophenyl)methyl]methanamine]	20 nM

same assay, conditions: CatS IC50

Structure (SMILES)	IC50
NC(=O)N1CCc2c(c(-c3ccc(Cl)c(C#Cc4ccc(CN5CCC(N6C[C@H](O)CC6=O)CC5)cc4)c3)nn2CCCN2CCSCC2)C1 [Example 549, 3-(4-Chloro-3-{[4-({4-[(4R)-4-hydroxy-2-oxopyrrolidin-1-yl]piperidin-1-yl}methyl)phenyl]ethynyl}phenyl)-1-(3-thiomorpholin-4-ylpropyl)-1,4,6,7-tetrahydro-5H-pyrazolo[4,3-c]pyridine-5-carboxamide]	1010 nM
CS(=O)(=O)N1CCc2c(c(-c3ccc(Cl)c(C#Cc4ccc(CNC5CCCC5)cc4)c3)nn2CCCN2CCOCC2)C1 [Example 325, N-{[4-({2-Chloro-5-[5-(methylsulfonyl)-1-(3-morpholin-4-ylpropyl)-4,5,6,7-tetrahydro-1H-pyrazolo[4,3-c]pyridin-3-yl]phenyl}ethynyl)phenyl]methyl}cyclopentanamine]	1450 nM
CSc1ccc(CNCc2ccc(C#Cc3cc(-c4nn(CCCN5CCSCC5)c5c4CN(C(N)=O)CC5)ccc3Cl)cc2)cc1 [Example 550, 3-[4-Chloro-3-({4-[({[4-(methylsulfanyl)phenyl]methyl}amino)methyl]phenyl}ethynyl)phenyl]-1-(3-thiomorpholin-4-ylpropyl)-1,4,6,7-tetrahydro-5H-pyrazolo[4,3-c]pyridine-5-carboxamide]	100 nM
CS(=O)(=O)N1CCc2c(c(-c3ccc(Cl)c(C#Cc4ccccc4CNCc4ccccc4)c3)nn2CCCN2CCOCC2)C1 [Example 386, 1-[2-({2-Chloro-5-[5-(methylsulfonyl)-1-(3-morpholin-4-ylpropyl)-4,5,6,7-tetrahydro-1H-pyrazolo[4,3-c]pyridin-3-yl]phenyl}ethynyl)phenyl]-N-(phenylmethyl)methanamine]	770 nM
NC(=O)C(=O)N1CCc2c(c(-c3ccc(Cl)c(C#Cc4ccc(CNCc5ccc(Cl)cc5)cc4)c3)nn2CCCN2CCC3(CC2)OCCO3)C1 [Example 451, 2-{3-(4-Chloro-3-{[4-({[(4-chlorophenyl)methyl]amino}methyl)phenyl]ethynyl}phenyl)-1-[3-(1,4-dioxa-8-azaspiro[4.5]dec-8-yl)propyl]-1,4,6,7-tetrahydro-5H-pyrazolo[4,3-c]pyridin-5-yl}-2-oxoacetamide]	100 nM
NC(=O)N1CCc2c(c(-c3ccc(Cl)c(C#Cc4ccc(Cl)c(CNCc5ccccn5)c4)c3)nn2CCCN2CCSCC2)C1 [Example 292, 3-{4-Chloro-3-[(4-chloro-3-{[(pyridin-2-ylmethyl)amino]methyl}phenyl)ethynyl]phenyl}-1-(3-thiomorpholin-4-ylpropyl)-1,4,6,7-tetrahydro-5H-pyrazolo[4,3-c]pyridine-5-carboxamide]	20 nM
CS(=O)(=O)N1CCc2c(c(-c3ccc(Cl)c(CCc4cccc(CNCC5CCOCC5)c4)c3)nn2CCCN2CCOCC2)C1 [Example 186, 1-[3-(2-{2-Chloro-5-[5-(methylsulfonyl)-1-(3-morpholin-4-ylpropyl)-4,5,6,7-tetrahydro-1H-pyrazolo[4,3-c]pyridin-3-yl]phenyl}ethyl)phenyl]-N-(tetrahydro-2H-pyran-4-ylmethyl)methanamine]	690 nM
CS(=O)(=O)N1CCc2c(c(-c3ccc(Cl)c(C#Cc4ccc(CNCc5ccc(Cl)cc5)cc4)c3)nn2CCCN2CC[S+]([O-])CC2)C1 [Example 537, 1-{4-[(2-Chloro-5-{5-(methylsulfonyl)-1-[3-(1-oxidothiomorpholin-4-yl)propyl]-4,5,6,7-tetrahydro-1H-pyrazolo[4,3-c]pyridin-3-yl}phenyl)ethynyl]phenyl}-N-[(4-chlorophenyl)methyl]methanamine]	280 nM
CS(=O)(=O)N1CCc2c(c(-c3ccc(Cl)c(C#Cc4ccc(CNCc5ccc(Cl)cc5)cc4)c3)nn2CCCN2CC[C@H](O)C2)C1 [Example 382, (3S)-1-{3-[3-(4-Chloro-3-{[4-({[(4-chlorophenyl)methyl]amino}methyl)phenyl]ethynyl}phenyl)-5-(methylsulfonyl)-4,5,6,7-tetrahydro-1H-pyrazolo[4,3-c]pyridin-1-yl]propyl}pyrrolidin-3-ol]	110 nM
CC(C)Oc1ccc(CNCc2ccc(C#Cc3cc(-c4nn(CCCN5CCSCC5)c5c4CN(C(N)=O)CC5)ccc3Cl)cc2)cc1 [Example 174, 3-{4-Chloro-3-[(4-{[({4-[(1-methylethyl)oxy]phenyl}methyl)amino]methyl}phenyl)ethynyl]phenyl}-1-(3-thiomorpholin-4-ylpropyl)-1,4,6,7-tetrahydro-5H-pyrazolo[4,3-c]pyridine-5-carboxamide]	270 nM
CS(=O)(=O)N1CCc2c(c(-c3ccc(Cl)c(C#Cc4ccc(CN[C@H]5CCCc6ccccc65)cc4)c3)nn2CCCN2CCN(c3ccccn3)CC2)C1 [Example 216, (1S)—N-({4-[(2-Chloro-5-{5-(methylsulfonyl)-1-[3-(4-pyridin-2-ylpiperazin-1-yl)propyl]-4,5,6,7-tetrahydro-1H-pyrazolo[4,3-c]pyridin-3-yl}phenyl)ethynyl]phenyl}methyl)-1,2,3,4-tetrahydronaphthalen-1-amine]	70 nM
Cc1ccc(CNCc2ccc(C#Cc3cc(-c4nn(CCCN5CCSCC5)c5c4CN(C(N)=O)CC5)ccc3Cl)cc2)cc1 [Example 173, 3-(4-Chloro-3-{[4-({[(4-methylphenyl)methyl]amino}methyl)phenyl]ethynyl}phenyl)-1-(3-thiomorpholin-4-ylpropyl)-1,4,6,7-tetrahydro-5H-pyrazolo[4,3-c]pyridine-5-carboxamide]	120 nM
CS(=O)(=O)N1CCc2c(c(-c3ccc(Cl)c(C#Cc4ccc(CN5Cc6ccccc6C5)cc4)c3)nn2CCCN2CCOCC2)C1 [Example 443, 3-(4-Chloro-3-{[4-(1,3-dihydro-2H-isoindol-2-ylmethyl)phenyl]ethynyl}phenyl)-5-(methylsulfonyl)-1-(3-morpholin-4-ylpropyl)-4,5,6,7-tetrahydro-1H-pyrazolo[4,3-c]pyridine]	690 nM
